Patent publication US20120003270A1, “6-SUBSTITUTED ISOFLAVONOID COMPOUNDS AND USES THEREOF” (priority 2008, published 2012)

Key:
[1] = Pharmacokinetics after a single oral dose in mice; type: in vivo, mouse; conditions: serum; for half-life / AUC: mouse; for half-life: oral, 25 mg/kg, unconjugated, one phase exponential decay, read-out: t1/2 (free); for AUC: oral 25 mg/kg in PEG 400/PBS 1:1; for AUCfree/AUCtotal / [max]free (μM, mean ± SD): oral 25 mg/kg
Description: The pharmacokinetic (PK) profiles of compounds (1) and (3) were examined following oral administration in PEG 400/PBS 1:1 at a dose of 25 mg/kg. For each experiment, three animals were allocated per time point (15 min, 30 min, 60 min, 90 min, 4 hr and 24 hr). Mice were killed using cervical dislocation and serum collected via cardiac puncture. Faeces and urine, where available, were also collected. Samples were stored at −80° C. and analysed by LC-MS in-house. The limit of detection was 20 ng/ml.
In Table 23 (and Table 24), “AUC” represents the area under the serum concentration versus time curve, expressed as μM*hour/L. This number assesses absorption and clearance in a relative way. The higher the number, the more compound has been absorbed and the longer it has remained in circulation. “AUCfree” refers to the area under the curve for unconjugated or free analogue, whereas “AUCtotal” refers to the area under the curve for the free and conjugated analogue combined.
“[max]” refers to the maximum concentration observed in serum. These measurements also give some understanding of how well a compound is absorbed.
The ratio of the AUCfree to the AUCtotal gives a relative measure of how much of the administered compound i.e. ‘free’ remains either in circulation compared to how much of the compound is conjugated.
“t1/2” is the half life, i.e. the time taken for the serum concentration to fall by half. The elimination of a drug is usually an exponential (logarithmic) process, so that a constant proportion is eliminated per unit time. […] The first refers to the t1/2 of the unconjugated analogue and the second the t1/2 of the total (free plus conjugated) analogue.

[2] = tested on: neonatal fibroblast foreskin (NFF); assay: Toxicity in normal cells (MTT), NFF; type: cell-based; conditions: Homo sapiens, 120 h, 5 days, top concentration 150 μM, read-out: Normal cell viability IC50
Description: Human neonatal fibroblast foreskin (NFF—a gift from Dr. Peter Parsons, Queensland Institute of Medical Research) or rabbit kidney (RK-13—a gift from Prof. Miller Whalley, Macquarie University) cells were seeded into 96 well plates and cultured in RPMI supplemented with 10% FCS (CSL, Australia), penicillin (100 U/ml), streptomycin ([…]), L-glutamine (2 mM) and sodium bicarbonate (1.2 g/L) at 37° C. and 5% CO2 for 24 hours until cells had attached and entered log phase of growth. Test compounds were added in serial two-fold dilutions from 150 μM in triplicate and incubated for a further 5 days. MTT was then added to each well, incubated for 3 hours at 37° C., after which the medium was tipped off. Following the addition of DMSO, the absorbance for each well was read on a plate reader. The assays were repeated at least twice.

VCAM-1 = assay: TNFα-induced VCAM-1 expression in HAECs (ELISA); type: cell-based, human; conditions: TNFα-stimulated HAECs, 405 nm
Description: Inhibition of TNFα-stimulated endothelial cell activation was assessed by measuring surface expression of cell adhesion molecules with an ELISA method. Human arterial endothelial cells (HAEC) in growth medium (Cell Applications Inc.) were seeded into 96-well plates at a density of 10,000 cells per well. Plates were incubated overnight at 37° C. in a humidified incubator to allow for cells to become confluent. On the morning of the experiment, TNFα (10 μl, 2 ng/ml) was added to each well, which contained 100 μl of medium. Test compounds were diluted in DMSO-containing medium (2.5% DMSO) to give a concentration of 100 and 300 μM. They were added to wells so that final concentrations were 10 and 30 μM. DMSO-containing medium alone was added to zero concentration control wells. All samples were measured in quadruplicate (4 wells per treatment).
After incubation with a compound of the formula (I), the medium was removed and cells were probed with either non-specific IgG or specific mouse antibodies (VCAM (BD Biosciences −0.1 μg in 100 μL buffered saline with 10% heat-inactivated human serum)).
Adhesion molecule expression was detected by addition of sheep anti-mouse antibody/horseradish peroxidase conjugate. Plates were allowed to stand for 30 minutes—monolayers were then washed, and sheep anti-mouse antibody/horseradish peroxidase conjugate (1:500 in 100 μL HBSS with 10% heat-inactivated human serum and 0.05% Tween 20) was added and left for 30 minutes. After further washing, 150 μL, ABTS substrate (Kirkegaard and Perry Laboratories) was added to each well and allowed to develop for 15 minutes. Optical density was measured at 405 nm with an ELISA reader (Titertek Multiscan, Flow Laboratories).

[3] = tested on: splenocytes (T and B cells); assay: Mitogen-stimulated splenocyte proliferation (MTT); type: cell-based, mouse; conditions: 10 μM, 3 day incubation, ConA or LPS
Description: Male Skh-1:HR1 (hairless) mice, approximately six weeks old were killed by cervical dislocation. Single cell suspensions were made from the spleen and erythrocytes were lysed in buffer (0.14M NH4Cl, 17 mM Tris, pH 7.2). The remaining splenocytes were cultured in RPMI-1640 (Gibco) supplemented with 10% (v:v) FBS, 200 mM L-glutamine, penicillin/streptomycin and […] 2-mercaptoethanol. Splenocytes were added to quadruplicate wells containing either concanavalin A (ConA, Sigma-Aldrich—0.4 μg/well), LPS (Sigma-Aldrich—1 μg/well) or no mitogen, as well 10 μM of test compound in DMSO. Samples were analysed after a 3 day incubation at 37° C. in 5% CO2 in air. Methylthiazoletetrazolium (MTT) is bioreduced by viable cells into a coloured formazan product that is soluble in DMSO. Thus the quantity of formazan product is directly proportional to the number of living cells in culture, and can be measured using a spectrophotometer at 570 nm. MTT was added to each well, incubated for a further 4 hrs and then colour developed with 0.04N HCl in isopropanol. Culture supernatants were stored after collection at −80° C. and both T and B cells analysed by ELISA (BD Biosciences) for IFN-γ (a Th-1 cytokine) and for T cells alone, IL-6 (a Th-2 cytokine).

Compound | half-life [1] [min] | AUC [1] [µM·h] | AUCfree/AUCtotal [1] [%] | [max]free (μM, mean ± SD) [1] [µM] | IC50 [2] [µM] | VCAM-1 expression, Absorbance (VCAM-1; 10 μM) | VCAM-1 expression, Absorbance (VCAM-1; 30 μM) | Effect on splenocyte (T and B cell) numbers [3]
O=C(O)C1CCCN1Cc1cc2c(cc1O)OCC(c1ccc(O)cc1)=C2 (stereo not shown) [Compound (3)] | 28 | 0.108 | 12 | 0.03 ± 0.01 | 111 ± 67.1 | 0.161 ± 0.16 | 0.215 ± 0.018 | little effect on cell numbers
CN(C)Cc1cc2c(cc1O)OCC(c1ccc(O)cc1)=C2 [Compound (1)] | 9 | 0.127 | 33 | 0.13 ± 0.1 | 64.1 ± 9.6 | 0.164 ± 0.012 | 0.208 ± 0.008 | markedly and significantly immunosuppressive to T cells and to a lesser extent, B cells
